Experimental findings from patent US20220264883A1, “IMIDAZOTHIAZOLE COMPOUNDS AND METHODS FOR TREATING PLANT NEMATODE INFECTIONS” (The Governing Council of the University of Toronto, priority 2019, published 2022) are described below.

Where “and” joins values, the source holds several entries; their conditions need not be identical. Equal values may be shown once. A value given as a limit tells only on which side of the number the result lay.

Data set [1] concerns C. elegans. In words: C. elegans minimum lethal concentration dose-response. It counts as in vivo, Caenorhabditis elegans. The note with it: Caenorhabditis elegans, C. elegans viability. On the procedure:
(§1) Forty microliters of an HB101 bacterial suspension in liquid NGM (see above) was added to each well of a 96-well flat-bottom culture plate, after which approximately 25 synchronized L1 worms, in 10 μl of M9 buffer (see ref. 59 for the recipe), were added to each well. The synchronized L1 worms were obtained from an embryo preparation performed the previous day (see ref. 59 for the protocol). For the L1 assays, 0.5 μl of chemical solution (or DMSO alone) was immediately added to the wells using a multichannel pipette, the final DMSO concentration is 1% (v/v). The worms were incubated for 3 days at 20° C. and the number of viable animals was counted. […] Although the counts were performed after 3 days of incubation in the chemical, it was noted that the L1s were dead within 24 hours of the addition of the chemicals. For the L2/L3 assays, the worms were incubated in the absence of chemical for 1 day at 20° C. until they reached the L2/L3 stage, at which point chemical was added as described above. The worms were then allowed to incubate for 2 days at 20° C. and the number of viable animals was counted as described for the L1 assay. For the L4 assays, the worms were incubated for 2 days at 20° C. before the addition of chemicals. The L4-stage worms were then incubated in chemical for an additional day before quantifying the number of viable animals. The adult assays were performed the same way as the L4 assays, however HT115 E. coli carrying the empty dsRNA expressing vector L4440 was used in place of HB101 and the worms were cultured at 25° C. as opposed to 20° C. for the entirety of the experiment. The HT115 suspension was made by concentrating a bacterial culture, with an OD600 of ˜ 0.8, five-fold with liquid NGM containing 1 mM IPTG and 100 μg/ml carbenicillin. The HT115 cells were induced with 1 mM IPTG for one hour before concentrating with NGM.
Compounds Ia to Im, dose-response assays were performed with C. elegans. 8 of the compounds killed C. elegans with minimum lethal concentrations less than or equal to 100 μM (Table 6). Compounds Ia, Ic, and Ij were the most potently lethal nematicides in this assay, having minimum lethal concentrations of 6.25 μM and below. The positive control nematicide tioxazafen killed nematodes at 3.13 μM and above.

The subject of data set [2] is M. chitwoodi. In words: Root-knot nematode M. chitwoodi mobility (Table 3). Format: in vivo, Meloidogyne chitwoodi. Conditions: 45 μM, 2 days of chronic exposure. On the procedure: M. incognita (Kofoid & White) Chitwood Race 1 (originally isolated in Maryland) was used for all experiments, and was maintained on pepper (Capsicum annuum L.) cv. PA-136 in a greenhouse as previously described^64. Infective J2 juveniles were collected as described in ref.65. The microwell dose-response experiments were carried out similarly to previously described protocols^64, 66. In brief, 100 J2s, in 10 μL of deionized water, were added to the wells of 96-well polystyrene plates, after which 190 μL of deionized water containing dissolved chemical, or DMSO alone, was added to each well. The chemicals were tested at 45 μM, and the final concentration of DMSO in each well was 0.5% (v/v). The wells were covered with a plastic adhesive strip, and the lids of the plates were sealed with parafilm. The plates were incubated at 25° C. The mobile fraction of worms was quantified by counting the number of mobile and immobile worms after 2 days of incubation, and then dividing the number of mobile worms by the total number of worms in the well. Three technical replicates were performed for each treatment, and an average value for the mobile fraction of worms was calculated across the three replicates. The percent effectiveness at inhibiting nematode movement was calculated by dividing the average value for the chemical treatment by the average value for the DMSO control, then subtracting this value from 1, and then multiplying by 100.
M. chitwoodi race 1 (the strain commonly found in the pacific northwest of the United States) was used for all experiments, and was maintained on tomato plants (Solanum lycopersicum ‘Rutgers’) as previously described^73. The M. chitwoodi in vitro assays were performed identically to the M. incognita in vitro assays (see above).
(§2) The ability of exemplary compounds of the application to kill C. elegans at 100 μM (except for compound If which was tested at 50 μM) and to affect the mobility of M. chitwoodi at 45 μM was tested as described above for M. incognita infective juveniles. Percent mobility was measured after 2 days of chronic exposure to test compounds (Table 3).

Data set [3] in a line: Saccharomyces cerevisiae (budding yeast) dose-response experiments. Format: cell-based. The note with it: Saccharomyces cerevisiae, yeast strain RY0568 culture; non-target system; growth over 18 hours; read-out: S. cerevisiae LC50. On the procedure:
A saturated culture of the yeast strain RY0568 was diluted to an OD600 of 0.015 with fresh YPD media (see ref. 62). 100 μL of this dilute yeast suspension was added to each well of a 96-well plate. The yeast were grown for 4 hours at 30° C. with shaking at 140 rpm. Using a multichannel pipette, 1 μL of chemical solution was added to each well to achieve the desired final concentrations. The final DMSO concentration was 1% (v/v). The microwell plate was then loaded into a TECAN plate reader set at 30° C. The OD600 of each well was measured over an 18-hour period, and the plate was shaken intermittently throughout the run. The areas under the resultant growth curves were calculated using R scripts adapted from those found in the MESS package. The area under the curve at each concentration of a dose-response assay was divided by the area under the curve for the corresponding DMSO control, resulting in a “relative fitness” value for each concentration tested. Three biological replicates were performed for each dose-response experiment, and the relative fitness values were averaged across the three replicates.

The test system of data set [4] is C. elegans. In words: C. elegans viability at a single concentration (Table 3). Format: in vivo. Conditions: Caenorhabditis elegans; 100 μM. On the procedure: as §1, §2
For data set [5], the system named is C. oncophora. The data set is described as follows: whole plant or invertebrate. Format: in vivo. The note with it: Cooperia oncophora, 48 h; eggs of ivermectin-resistant strain, 2 days, egg hatch. The source says:
Fresh cattle faeces containing eggs of an ivermectin-resistant strain of C. oncophora were kindly supplied by Dr. Doug Colwell and Dawn Gray (Lethbridge Research Station, Agriculture and Agri-Food Canada). Established methods were used to carry out the experimental cattle infections^60, and these methods were approved by the Lethbridge AAFC Animal Care committee and conducted under animal use license ACC1407. Cattle faeces containing C. oncophora eggs were stored anaerobically at room temperature for a maximum of 6 days before use. Eggs were isolated from faeces using a standard saturated salt flotation method^61 immediately before the egg hatch assay. 80 μl of distilled and deionized water was added to each well of a 96-well culture plate, and then 1 μl of chemical at the appropriate concentration in DMSO was added to each well using a multichannel pipette. Approximately 50 eggs were added per well in 20 μl of water for a final volume of 100 μl in each well, the final DMSO concentration was 1% (v/v). The eggs were incubated in the chemicals for 2 days at room temperature, after which hatching was stopped by the addition of 1 μl iodine tincture to each well. […] “Relative viability” values were calculated by dividing the fraction of eggs that hatched at each concentration by the fraction of eggs that hatched in the corresponding DMSO control wells. Two biological replicates were performed for each dose-response experiment, and the relative viability values were averaged across the biological replicates. The average hatch rate for the DMSO control wells was greater than 93% for both biological replicates. LC50 values were calculated in the same manner as for the C. elegans dose-response assays

By minimal effective concentration is commonly meant the smallest amount tested that counted as effective. The term viability denotes the share of living cells, or the viability signal relative to a control. One may read the LC50 as the concentration that kills 50% of the test population. A high value points to lower toxicity. For the compound `Cc1csc2nc(-c3ccccc3)cn12` [Compound Ie], in data set [1], the minimal effective concentration was > 100 µM and > 21.4 µg/mL. In data set [2], this compound yielded an RKN mobility of 50.8%. Besides, the CC50 at 18 h in data set [3] is over 100 µM. The compound further gave a viability at 100 µM in data set [4] of 100%. The compound also registered an LC50 in data set [5] of 0.9 µM.
In data set [1], `Clc1ccc(-c2cn3ccsc3n2)cc1` [Ia] returned a minimal effective concentration of 1.5 µg/mL. This compound showed an RKN mobility in data set [2] of 0%. In data set [3], the CC50 at 18 h was over 100 µM. In data set [4], this compound had a viability at 100 µM of 0%. Besides, the LC50 in data set [5] is 3.7 µM.
`Fc1ccc(-c2cn3ccsc3n2)cc1` [Ib]: the minimal effective concentration in data set [1] is 25 µM and 5.5 µg/mL. The compound further had an RKN mobility in data set [2] of 43.2%. Also, the CC50 at 18 h in data set [3] is over 100 µM. The compound further gave a viability at 100 µM in data set [4] of 0%. In addition, the LC50 in data set [5] is 5.4 µM.
